Where a name gives a salt, the structure may show the parent alone. Read-outs that look alike come from different tables or passages of the source.

Here are results for 30 compounds from PMC5681660, “Reduced hepatitis B and D viral entry using clinically applied drugs as novel inhibitors of the bile acid transporter NTCP” (Scientific Reports, 2017).

The target of assay [1] is T1, human NTCP (Homo sapiens, UniProt Q14973).
T1 sequence (Q14973 1-349): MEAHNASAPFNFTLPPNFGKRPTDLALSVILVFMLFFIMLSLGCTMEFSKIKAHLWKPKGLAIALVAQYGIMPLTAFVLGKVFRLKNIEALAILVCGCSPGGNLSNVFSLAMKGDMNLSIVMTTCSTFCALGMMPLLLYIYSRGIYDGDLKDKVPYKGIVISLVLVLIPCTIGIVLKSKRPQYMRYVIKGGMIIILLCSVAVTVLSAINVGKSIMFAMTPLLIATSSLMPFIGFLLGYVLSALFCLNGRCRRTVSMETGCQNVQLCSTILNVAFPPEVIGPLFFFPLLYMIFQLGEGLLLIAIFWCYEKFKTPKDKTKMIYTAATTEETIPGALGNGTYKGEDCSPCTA
Description: Screening fluorescent competitive Myrcludex B-FITC binding assay (96-well, 10 µM drug).

The target in assay [2] is T1, human NTCP. In words: Screening taurocholate uptake assay (96-well, [14C]taurocholate, 10 µM drug).
Setting [3] is: Prestwick library screen, Myrcludex B-FITC binding, 10 µM drug.
[4] abbreviates: Prestwick library screen, taurocholate uptake, 10 µM drug.
[5] abbreviates: ranking score beside the functional and binding assay B-scores of the screen.
Where [6] appears, read: screen, 10 µM drug, Myrcludex B-FITC binding.
Where [7] appears, read: combined ranking from functional and binding screening assays.
Where [8] appears, read: screen, 10 µM drug, taurocholate uptake.
The mark [9] stands for this setting: Prestwick library screen, 10 µM drug, B-score of Myrcludex B-FITC binding.
The mark [10] stands for this setting: Prestwick library screen, 10 µM drug, B-score of taurocholate uptake.
The mark [11] stands for this setting: combined ranking from functional and binding assay B-scores.
[12] abbreviates: ranking over the functional and the binding screening assay.
Where [13] appears, read: screening taurocholate uptake, 10 µM drug.
The mark [14] stands for this setting: combined ranking of functional and binding screening assays.

Compound `COc1cc(N)c(Cl)cc1C(=O)NC1CCN(Cc2ccccc2)CC1` [Clebopride maleate] displayed a B-score binding assay on human NTCP [1] (setting [3]) of -0.092. The compound further returned a B-score functional assay at human NTCP [2] (setting [4]) of 0.453. The compound also registered a Ranking score on human NTCP [2] (setting [5]) of 697.485.
On to `CCOC(=O)C1=C[C@]2(CC)CCCN3CCc4c(n1c1ccccc41)[C@@H]32` [Vinpocetine], for which the B-score binding assay on human NTCP [1] (setting [6]) is recorded as -1.57. Moreover, the Ranking score on human NTCP [2] (setting [7]) was found to be 428.448. This compound also returned a B-score functional assay on human NTCP [2] (setting [8]) of 2.672.
On the same counts, the results for `COC(=O)C1=C(C)NC(C)=C(C(=O)O[C@@H]2CCCN(Cc3ccccc3)C2)[C@@H]1c1cccc([N+](=O)[O-])c1.Cl` (racemic) [Benidipine hydrochloride] are -0.032, 426.727 and -0.759.
For the compound `Cl.Clc1ccc(C(OCCN2CCCCC2)c2ccccc2)cc1` (stereo not shown) [Cloperastine hydrochloride], at human NTCP [1] (setting [9]), the B-score binding assay is listed as 0.356. The compound also showed a B-score functional assay at human NTCP [2] (setting [10]) of 2.21. In addition, on human NTCP [2] (setting [11]), the Ranking score is listed as 1021.61.
`O=C(O)CCC(=O)c1ccc(-c2ccccc2)cc1` [Fenbufen] gave a B-score binding assay on human NTCP [1] (setting [6]) of -0.209. For the same compound, the Ranking score at human NTCP [2] (setting [7]) was 326.986. The B-score functional assay on human NTCP [2] (setting [8]) is -1.216.
On the same counts, the results for `COc1ccccc1OCCNCC(O)COc1cccc2[nH]c3ccccc3c12` (stereo not shown) [Carvedilol] are -0.836, 348.775 and -0.341.
`CCC(=O)O[C@]1(C(=O)SCF)[C@H](C)C[C@H]2[C@@H]3C[C@H](F)C4=CC(=O)C=C[C@]4(C)[C@@]3(F)[C@@H](O)C[C@@]21C` [Fluticasone propionate] came in with a B-score binding assay at human NTCP [1] (setting [3]) of 0.947. The compound also registered a B-score functional assay at human NTCP [2] (setting [4]) of 0.021. The same compound displayed a Ranking score on human NTCP [2] (setting [5]) of 830.535.
For `COc1cc(NS(=O)(=O)c2ccc(N)cc2)nc(OC)n1` [Sulfadimethoxine] the same measures were -0.117, 0.762 and 733.169.
For `Cc1onc(-c2ccccc2)c1C(=O)N[C@@H]1C(=O)N2[C@@H]1SC(C)(C)[C@@H]2C(=O)[O-].[Na+]` [Oxacillin sodium], the B-score binding assay on human NTCP [1] (setting [9]) is 0.083. In addition, the B-score functional assay at human NTCP [2] (setting [10]) is 0.869. Moreover, the Ranking score on human NTCP [2] (setting [11]) was 869.572.
Compound `Nc1nc(=S)c2ncn([C@@H]3O[C@H](CO)[C@@H](O)[C@H]3O)c2[nH]1` [Thioguanosine] showed a B-score binding assay at human NTCP [1] (setting [6]) of -0.655. Further, the Ranking score on human NTCP [2] (setting [7]) turned out to be 366.332. At human NTCP [2] (setting [8]), the B-score functional assay is given as -0.426.
`COc1cccc2c1C(=O)c1c(O)c3c(c(O)c1C2=O)C[C@@](O)(C(=O)CO)C[C@@H]3O[C@H]1C[C@H](N)[C@H](O)[C@H](C)O1` [Doxorubicin hydrochloride] returned a B-score binding assay at human NTCP [1] of -0.177. On human NTCP [2], this compound returned a B-score functional assay of 0.02 and a Ranking score of 577.781.
Bacitracin: the B-score binding assay on human NTCP [1] (setting [9]) is reported as 0.785. The B-score functional assay at human NTCP [2] (setting [10]) turned out to be 1.013. Moreover, on human NTCP [2] (setting [11]), the Ranking score is 1026.66.
At human NTCP [1] (setting [3]), `CC(=O)O[C@H]1C(=O)[C@@]2(C)[C@H]([C@H](OC(=O)c3ccccc3)[C@]3(O)C[C@H](OC(=O)[C@H](O)[C@@H](NC(=O)c4ccccc4)c4ccccc4)C(C)=C1C3(C)C)[C@]1(OC(C)=O)CO[C@@H]1C[C@@H]2O` [Paclitaxel] yielded a B-score binding assay of 0.829. For the same compound, at human NTCP [2] (setting [4]), the B-score functional assay is -0.069. In addition, the Ranking score on human NTCP [2] (setting [5]) is 752.811.
Compound `CCN(CC)CCOc1ccc(C(=C(Cl)c2ccccc2)c2ccccc2)cc1.O=C(O)CC(O)(CC(=O)O)C(=O)O` [Clomiphene citrate (Z,E)] registered a B-score binding assay on human NTCP [1] (setting [3]) of -0.291. Besides, the B-score functional assay at human NTCP [2] (setting [4]) was found to be 0.862. For the same compound, the Ranking score at human NTCP [2] (setting [5]) is listed as 678.964.
Take `CN1Cc2c(N)cccc2C(c2ccccc2)C1` (stereo not shown) [Nomifensine maleate]: the B-score binding assay on human NTCP [1] (setting [6]) is listed as -1.176. Moreover, the Ranking score at human NTCP [2] (setting [7]) came out at 394.208. On human NTCP [2] (setting [8]), this compound yielded a B-score functional assay of 0.089.
On human NTCP [1] (setting [3]), `Cc1cc(C)nc([N-]S(=O)(=O)c2ccc(N)cc2)n1.[Na+]` [Sulfamethazine sodium salt] yielded a B-score binding assay of 0.015. The B-score functional assay at human NTCP [2] (setting [4]) was 0.394. Besides, the Ranking score on human NTCP [2] (setting [5]) worked out at 760.788.
In turn, `S=C(NC1CCCCC1)N1CCC(c2cnc[nH]2)CC1` [Thioperamide maleate] displayed a B-score binding assay on human NTCP [1] (setting [6]) of 0.108. The Ranking score at human NTCP [2] (setting [7]) was determined as 451.504. In addition, the B-score functional assay at human NTCP [2] (setting [8]) is given as -0.893.
On the same counts, the results for `COc1cc([S+](C)[O-])ccc1-c1nc2ncccc2[nH]1` (stereo not shown) [Sulmazole] are -0.978, 402.209 and 0.016.
For `CC1(C)[C@H](C(=O)O)N2C(=O)C[C@H]2S1(=O)=O` [Sulbactam] the same measures were -1.629, 399.332 and 1.339.
On the same counts, the results for `COc1ccc(CN(CCN(C)C)c2ccccn2)cc1` [Pyrilamine maleate] are 0.121, 458.048 and -0.86.
Compound `CC(=O)N(CC(O)CN(C(C)=O)c1c(I)c(C(=O)NCC(O)CO)c(I)c(C(=O)NCC(O)CO)c1I)c1c(I)c(C(=O)NCC(O)CO)c(I)c(C(=O)NCC(O)CO)c1I` (stereo not shown) [Iodixanol] came in with a Ranking score at human NTCP [2] (setting [12]) of 270.78. In addition, the B-score functional assay on human NTCP [2] (setting [13]) is 2.051.
In the case of `C[n+]1ccccc1/C=N/O` [Pralidoxime chloride], on human NTCP [2] (setting [14]), the Ranking score came to 600.675. The same compound came in with a B-score functional assay at human NTCP [2] (setting [13]) of -0.006.
Consider `CC(CN(C)C)CN1c2ccccc2CCc2ccccc21.O=C(O)/C=C\C(=O)O` (stereo not shown) [Trimipramine maleate salt], for which the Ranking score at human NTCP [2] (setting [12]) was 129.248. The compound further came in with a B-score functional assay on human NTCP [2] (setting [13]) of -0.962.
On the same counts, the results for `Cc1c(NC(C)C)c(=O)n(-c2ccccc2)n1C.Cl` [Isopyrin hydrochloride] are 209.153 and -3.076.
On the same counts, the results for `CNC[C@H](O)[C@@H](O)[C@H](O)[C@H](O)CO` [Meglumine] are 72.6498 and -3.271.
Regarding `NC(CO)C(=O)NNCc1ccc(O)c(O)c1O` (stereo not shown) [Benserazide hydrochloride], the Ranking score on human NTCP [2] (setting [14]) came to 520.826. This compound also had a B-score functional assay at human NTCP [2] (setting [13]) of -0.402.
Take `C=C1/C(=C\C=C2/CCC[C@]3(C)[C@@H]([C@H](C)/C=C/[C@@H](O)C4CC4)CC[C@@H]23)C[C@@H](O)C[C@@H]1O` [Calcipotriene]: the Ranking score at human NTCP [2] (setting [12]) stood at 164.682. Besides, the B-score functional assay at human NTCP [2] (setting [13]) was -4.364.
At human NTCP [2] (setting [5]), `Cl.O.O.O=C1CC[C@@]2(O)[C@H]3Cc4ccc(O)c5c4[C@@]2(CCN3CC2CC2)[C@H]1O5` [Naltrexone hydrochloride dihydrate] returned a Ranking score of 809.543.
Take `O=C1c2cccc(O)c2C(=O)c2c(O)cccc21` [1,8-Dihydroxyanthraquinone]: the Ranking score at human NTCP [2] (setting [14]) is listed as 1173.42. On human NTCP [2] (screening taurocholate uptake, 10 µM drug, B-score), this compound displayed a B-score functional assay of 1.277.
For the compound `CC1(C)S[C@@H]2[C@H](NC(=O)[C@H](C(=O)O)c3ccsc3)C(=O)N2[C@H]1C(=O)O` [Ticarcillin sodium], the Ranking score at human NTCP [2] (setting [12]) turned out to be 110.132. The same compound gave a B-score functional assay at human NTCP [2] (setting [13]) of -0.726.
